Results as given in patent US5582997A, “Lysine/leucine polypeptides, mixture sets and libraries thereof” (priority 1994, dated 1996).
Where no end group is shown, it is not given here.

Experiments:
[1] = system: human erythrocytes (red blood cells; RBCs); test: Hemolytic activity; assay type: cell-based; details: for HC50 (μg/ml) against Erythrocytes: red cells of human
Method: The hemolytic activities of the polypeptide mixture sets were determined by using human erythrocytes (red blood cells; RBCs). The cells were washed three times with phosphate-buffered saline (PBS/35 mM phosphate buffer--0.15M NaCl, pH 7.0) and resuspended in PBS. The hemolytic activity of the polypeptide sets were determined as described in Blondelle et al., Biochem. Biophys. Acta, 1202:331-336 (1993) using 96 well tissue culture plates. In brief, 100 μl of 0.5 percent RBC solution were added to an equal volume of peptides in PBS. The plates were incubated for one hour at 37° C. and the optical density (OD) of the supernatant was measured at 414 nm. The concentration in peptide necessary to lyse 50 percent RBCs (HD50) was then determined for each peptide using a sigmoidal curve fitting method (Graphpad).

[2] = system: Staphylococcus aureus (ATCC 29213); assay type: cell-based; details: for IC50 (μg/ml) against S. aureus: individual polypeptides
Method: The polypeptide libraries of Example 1 were assayed for activity against Staphylococcus aureus [(ATCC 29213); ATCC, 12301 Parklawn Drive, Rockville, Md.]
(§1) To initiate the exponential phase of bacterial growth prior to the assay, a sample of bacteria grown overnight (about 18 hours) at 37° C. in Mueller Hinton broth (MH-Becton Dickinson Microbiology Systems) was reinoculated and incubated at 37° C. A final concentration of […] was used in all assays, vortexed and diluted 10-fold in Yeast Media (YM) broth (Difco Laboratories, Detroit, Mich.), for an approximate final concentration of 10^5 to 5×10^5 CFU/ml. The assays were carried out in 96-well tissue culture plates (Costar, Pleasanton, Calif.), as described in Blondelle et al., Biochem., 31:12688-12694 (1992). In brief, a bacterial suspension in 2× broth was added to the polypeptides mixture sets at concentrations derived from serial two-fold dilutions varying from 1000 μg/ml to 4 μg/ml. The plates were then incubated 21 hours at 37° C. The relative percent growth of the bacteria was determined by the optical density at 620 nm (OD620) using a Titertek Multiskan Plus apparatus (Flow Laboratories, McLean, Va.). The concentration necessary to inhibit 50 percent bacterial growth (IC50) was then calculated using the software program Graphpad (ISI, San Diego, Calif.).

E. coli ATCC 25922 = assay type: cell-based; details: for IC50 (μg/ml) against E. coli: individual polypeptides
Method: as §1
Studies similar to those with S. aureus were carried out using E. coli ATCC 25922. Here, results were not as dramatic, but enhancements in activity of about 2-fold were observed using the set libraries of Example 1.

[3] = Decarboxylase-like activity: catalysed decarboxylation of oxalacetate; assay type: biochemical; details: for kcat × 10^3 (S^-1): values are kcat × 10^3
Method: Each peptide mixture was assayed at 0.2 mM in the presence of 11.4 mM of oxalacetic acid (C4 H4 O5) at pH 7.0 (dilution done in PBS--35 mM phosphate buffer--0.15M NaCl) and 22° C. The kinetics of the decarboxylation reaction were monitored by UV spectroscopy at 280 nm for 45 minutes and the initial rate "v" was calculated directly from the kinetic software included with the spectrophotometer (Hewlett Packard Diode Array Spectrophotometer 8452A).
Based upon the scanning assay studies, a series of 144 individual polypeptides was prepared and assayed as above except that the oxalacetic acid concentration was 11.5 mM. These polypeptides had the sequence of SEQ ID NO:2 with residues at positions Xaa^6 being Glu, Lys or Trp; residues at Xaa^9 being Ala, Asn or Trp; residues at Xaa^13 being Glu, Gln, Val or Trp; and residues at position Xaa^16 being Asp, Met, Gln or Arg (3×3×4×4=144).

YKLLKLLLPKLKPLLIKL-NH2 [SEQ ID NO: 7, YKLLKLLLPKLKPLLIKL]
HC50 (μg/ml) against Erythrocytes [1]: 68.90 µg/mL
IC50 (μg/ml) against S. aureus [2]: 2.81 µg/mL
IC50 (μg/ml) against E. coli (E. coli ATCC 25922): 1.87 µg/mL

YKLLKKLLKKLKKLLKKL-NH2 [SEQ ID NO: 9, YKLLKKLLKKLKKLLKKL-NH2, reference compound]
HD50 value [1]: 27 µg/mL
IC50 value ([2]; ATCC 29213): 16 µg/mL
IC50 (E. coli ATCC 25922; ATCC 25922, 18 h): 9 µg/mL
IC50 (μg/ml) against E. coli (E. coli ATCC 25922): 9 µg/mL
Kcat /Km (S^-1 M^-1) ([3]; Table 3): 0.70 S^-1 M^-1
Km ([3]; Table 3, 0.2 mM peptide, oxalacetic acid 2.8 to 22.8 mM, pH 7.0, 22° C.): 13.5 mM
kcat × 10^3 (S^-1) ([3]; Table 3): 9.5 S^-1

YKLLKLLLPKLKPLLPKL-NH2 [SEQ ID NO: 8, YKLLKLLLPKLKPLLPKL]
HC50 (μg/ml) against Erythrocytes [1]: > 125 µg/mL
IC50 (μg/ml) against S. aureus [2]: 22.82 µg/mL
IC50 (μg/ml) against E. coli (E. coli ATCC 25922): 3.14 µg/mL
Kcat /Km (S^-1 M^-1) ([3]; Table 4): 0.53 S^-1 M^-1
Km ([3]; Table 4): 8 mM
kcat × 10^3 (S^-1) ([3]; Table 4): 4.22 S^-1

YKLLKLLLPKLKPLLFKL-NH2 [SEQ ID NO: 6, YKLLKLLLPKLKPLLFKL]
HC50 (μg/ml) against Erythrocytes [1]: 54.74 µg/mL
IC50 (μg/ml) against S. aureus [2]: 2.11 µg/mL
IC50 (μg/ml) against E. coli (E. coli ATCC 25922): 1.98 µg/mL

YKLLKLLLPKLKGLLPKL-NH2 [SEQ ID NO: 5, YKLLKLLLPKLKGLLPKL]
HC50 (μg/ml) against Erythrocytes [1]: > 125 µg/mL
IC50 (μg/ml) against S. aureus [2]: 5.14 µg/mL
IC50 (μg/ml) against E. coli (E. coli ATCC 25922): 2.65 µg/mL

YKLLKLLLPKLKGLLIKL-NH2 [SEQ ID NO: 4, YKLLKLLLPKLKGLLIKL]
HC50 (μg/ml) against Erythrocytes [1]: 28.41 µg/mL
IC50 (μg/ml) against S. aureus [2]: 2.52 µg/mL
IC50 (μg/ml) against E. coli (E. coli ATCC 25922): 3.61 µg/mL

YKLLKLLLPKLKGLLFKL-NH2 [SEQ ID NO: 3, YKLLKLLLPKLKGLLFKL]
HC50 (μg/ml) against Erythrocytes [1]: 24.41 µg/mL
IC50 (μg/ml) against S. aureus [2]: 1.71 µg/mL
IC50 (μg/ml) against E. coli (E. coli ATCC 25922): 2.40 µg/mL

YKLLKELLAKLKWLLRKL-NH2 [YKLLKELLAKLKWLLRKL-NH2]
Kcat /Km (S^-1 M^-1) ([3]; Table 4): 2.66 S^-1 M^-1
Km ([3]; Table 4): 5.66 mM
kcat × 10^3 (S^-1) ([3]; Table 4): 15.08 S^-1
